# Results: patent publication US10123993B2, “Cyclic ureas as inhibitors of rock” (BRISTOL-MYERS SQUIBB COMPANY, priority 2015, dated 2018)
# Target: ROCK2 (Homo sapiens, UniProt O75116)
# Test: ROCK2 kinase inhibition assay (Caliper LABCHIP, FITC peptide substrate)
# Type: biochemical
# Conditions: 5 μM ATP, 1.5 μM peptide substrate; value ranges
# Description: The effectiveness of compounds of the present invention as ROCK inhibitors can be determined in a 30 μL assay containing 20 mM HEPES, pH 7.5, 20 mM MgCl2, 0.015% Brij-35, 4 mM DTT, 5 μM ATP and 1.5 μM peptide substrate (FITC-AHA-AKRRRLSSLRA-OH). Compounds were dissolved in DMSO so that the final concentration of DMSO was <2%, and the reaction was initiated with Rho kinase variants. After incubation, the reaction was terminated by the addition of EDTA and the phosphorylated and non-phosphorylated peptides separated using a LABCHIP® 3000 Reader (Caliper Life Sciences). […] Compounds were tested in dose-response format, and the inhibition of kinase activity was calculated at each concentration of compound. The inhibition data were fit using a curve-fitting program to determine the IC50; i.e., the concentration of compound required to inhibit 50% of kinase activity.
# Representative Examples were tested in the ROCK2 assay described above and found having ROCK inhibitory activity.
# Sequence of ROCK2 (O75116 whole entry, species assumed): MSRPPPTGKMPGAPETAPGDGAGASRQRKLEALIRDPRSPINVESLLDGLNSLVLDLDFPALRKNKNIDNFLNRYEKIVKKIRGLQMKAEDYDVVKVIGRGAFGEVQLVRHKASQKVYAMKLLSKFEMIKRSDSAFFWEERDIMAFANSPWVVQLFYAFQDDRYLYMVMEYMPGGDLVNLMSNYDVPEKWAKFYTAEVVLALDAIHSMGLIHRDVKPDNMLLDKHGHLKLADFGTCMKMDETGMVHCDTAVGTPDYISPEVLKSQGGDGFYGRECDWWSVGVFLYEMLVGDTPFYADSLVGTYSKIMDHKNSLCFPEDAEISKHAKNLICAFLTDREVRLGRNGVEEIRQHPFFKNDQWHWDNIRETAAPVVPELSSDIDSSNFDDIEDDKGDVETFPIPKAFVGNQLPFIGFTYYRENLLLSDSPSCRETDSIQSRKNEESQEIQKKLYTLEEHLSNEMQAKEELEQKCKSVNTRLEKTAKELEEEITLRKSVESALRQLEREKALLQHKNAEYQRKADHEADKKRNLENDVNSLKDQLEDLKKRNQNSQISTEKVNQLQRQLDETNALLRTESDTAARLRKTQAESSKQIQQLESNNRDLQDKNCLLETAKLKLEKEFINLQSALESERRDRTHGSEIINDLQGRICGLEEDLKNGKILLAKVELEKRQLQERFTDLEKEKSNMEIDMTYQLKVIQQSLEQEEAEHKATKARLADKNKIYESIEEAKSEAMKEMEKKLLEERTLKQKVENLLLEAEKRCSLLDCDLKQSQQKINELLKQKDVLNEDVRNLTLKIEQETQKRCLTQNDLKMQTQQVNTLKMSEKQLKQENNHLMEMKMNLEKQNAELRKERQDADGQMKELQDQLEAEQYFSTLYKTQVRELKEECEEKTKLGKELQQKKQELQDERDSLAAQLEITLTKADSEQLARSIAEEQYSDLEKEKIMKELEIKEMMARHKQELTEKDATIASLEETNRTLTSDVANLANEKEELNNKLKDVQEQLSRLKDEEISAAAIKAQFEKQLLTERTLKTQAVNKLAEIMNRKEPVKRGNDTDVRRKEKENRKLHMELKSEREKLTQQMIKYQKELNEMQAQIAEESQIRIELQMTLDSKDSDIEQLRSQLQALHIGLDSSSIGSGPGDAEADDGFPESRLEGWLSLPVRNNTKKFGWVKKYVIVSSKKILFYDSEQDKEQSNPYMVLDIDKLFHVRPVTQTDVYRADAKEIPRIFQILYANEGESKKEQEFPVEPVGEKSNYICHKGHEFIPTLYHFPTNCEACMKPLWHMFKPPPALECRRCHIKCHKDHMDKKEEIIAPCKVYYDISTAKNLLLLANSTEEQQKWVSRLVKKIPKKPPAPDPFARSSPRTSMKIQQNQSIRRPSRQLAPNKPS
row,SMILES,IC50
1,"COc1cccc(CN2CC(CO)N(c3ccc(-c4cn[nH]c4)cc3)C2=O)c1 (single isomer, unassigned) [Example 126, 3-(4-(1H-Pyrazol-4-yl)phenyl)-4-(hydroxymethyl)-1-(3-methoxybenzyl)imidazolidin-2-one]",20.1 to 200 nM
2,"COc1cccc(C(C)N2C(=O)N(c3ccc(-c4cn[nH]c4)cc3)C[C@@H]2CO)c1 (single isomer, unassigned) [Example 133]",20.1 to 200 nM
3,"COc1cccc(CN2C(=O)N(c3ccc(-c4cn[nH]c4)c(OC)c3)CC2CO)c1 (single isomer, unassigned) [Example 134, 4-(hydroxy-methyl)-1-(3-methoxy-4-(1H-pyrazol-4-yl)phenyl)-3-(3-methoxy-benzyl) imidazolidin-2-one]",200 to 2000 nM
4,"COc1cccc(CN2C(=O)N(c3ccc(-c4cn[nH]c4)c(OC)c3)CC2CO)c1 (single isomer, unassigned) [Example 135, 4-(hydroxy-methyl)-1-(3-methoxy-4-(1H-pyrazol-4-yl)phenyl)-3-(3-methoxy-benzyl) imidazolidin-2-one]",200 to 2000 nM
5,"COc1cccc(C(C)N2C(=O)N(c3ccc(-c4cn[nH]c4)cc3)CC2(C)C)c1 (single isomer, unassigned) [Example 146, 1-(4-(1H-pyrazol-4-yl)phenyl)-3-(1-(3-methoxy-phenyl)-ethyl)-4,4-dimethyl-imidazolidin-2-one]",20.1 to 200 nM
6,"COc1cccc(C(CO)N2CCN(c3ccc(-c4cn[nH]c4)cc3)C2=O)c1 (single isomer, unassigned) [Example 154, 1-(4-(1H-Pyrazol-4-yl)phenyl)-3-(2-hydroxy-1-(3-methoxyphenyl)ethyl)imidazolidin-2-one]",20.1 to 200 nM
7,"COCC(c1cccc(OC)c1)N1CCN(c2ccc(-c3cn[nH]c3)cc2)C1=O (single isomer, unassigned) [Example 157, 1-(4-(1H-Pyrazol-4-yl)phenyl)-3-(2-methoxy-1-(3-methoxyphenyl)ethyl)imidazolidin-2-one]",200 to 2000 nM
8,"CCc1nc(N2CCN(C(CO)c3cccc(OC)c3)C2=O)ccc1-c1cn[nH]c1 (single isomer, unassigned) [Example 158, 1-(6-ethyl-5-(1H-pyrazol-4-yl)pyridin-2-yl)-3-(2-hydroxy-1-(3-methoxy-phenyl)ethyl) imidazolidin-2-one]",20.1 to 200 nM
9,"COc1cccc(C(CO)N2CCN(c3ccc(-c4cn[nH]c4)c(C)n3)C2=O)c1 (single isomer, unassigned) [Example 160, 1-(2-hydroxy-1-(3-methoxy-phenyl)ethyl)-3-(6-methyl-5-(1H-pyrazol-4-yl)pyridin-2-yl)imidazolidin-2-one]",20.1 to 200 nM
10,"COc1cccc(C(CO)N2CCN(c3ccc(-c4cn[nH]c4)c(C)n3)C2=O)c1 (single isomer, unassigned) [Example 161, 1-(2-hydroxy-1-(3-methoxy-phenyl)ethyl)-3-(6-methyl-5-(1H-pyrazol-4-yl)pyridin-2-yl)imidazolidin-2-one]",2.1 to 20 nM
11,"O=C1N(c2ccc(-c3cn[nH]c3)cc2)CCN1C(CO)c1ccccc1 (single isomer, unassigned) [Example 162, 1-(4-(1H-pyrazol-4-yl)phenyl)-3-(2-hydroxy-1-phenylethyl) imidazolidin-2-one]",200 to 2000 nM
12,"O=C1N(c2ccc(-c3cn[nH]c3)cc2)CCN1C(CO)c1ccccc1 (single isomer, unassigned) [Example 163, 1-(4-(1H-pyrazol-4-yl)phenyl)-3-(2-hydroxy-1-phenylethyl) imidazolidin-2-one]",2.1 to 20 nM
13,"COc1cccc(C(CO)N2CCN(c3ccc(-c4cn[nH]c4)c(C)c3)C2=O)c1 (single isomer, unassigned) [Example 164, 1-(2-hydroxy-1-(3-methoxy-phenyl)ethyl)-3-(3-methyl-4-(1H-pyrazol-4-yl)phenyl) imidazolidin-2-one]",200 to 2000 nM
14,"COc1cccc(C(CO)N2CCN(c3ccc(-c4cn[nH]c4)c(C)c3)C2=O)c1 (single isomer, unassigned) [Example 165, 1-(2-hydroxy-1-(3-methoxy-phenyl)ethyl)-3-(3-methyl-4-(1H-pyrazol-4-yl)phenyl) imidazolidin-2-one]",2.1 to 20 nM
15,"CCc1cc(N2CCN(C(CO)c3cccc(OC)c3)C2=O)ccc1-c1cn[nH]c1 (single isomer, unassigned) [Example 166, 1-(3-ethyl-4-(1H-pyrazol-4-yl)phenyl)-3-(2-hydroxy-1-(3-methoxy-phenyl)ethyl) imidazolidin-2-one]",2.1 to 20 nM
16,"CCc1nc(N2CCN(C(C)c3cccc(OC)c3)C2=O)ccc1-c1cn[nH]c1 (single isomer, unassigned) [Example 174, 1-(6-ethyl-5-(1H-pyrazol-4-yl)pyridin-2-yl)-3-(1-(3-methoxy-phenyl)ethyl) imidazolidin-2-one]",200 to 2000 nM
17,"COc1cccc(C(C)N2CCN(c3ccc(-c4cn[nH]c4)c(C)n3)C2=O)c1 (single isomer, unassigned) [Example 181, 1-(1-(3-methoxy-phenyl)-ethyl)-3-(6-methyl-5-(1H-pyrazol-4-yl)pyridin-2-yl)-imidazolidin-2-one]",2.1 to 20 nM
18,"COc1cccc(C(C)N2CCN(c3ccc(-c4cn[nH]c4)c(C)n3)C2=O)c1 (single isomer, unassigned) [Example 182, 1-(1-(3-methoxy-phenyl)-ethyl)-3-(6-methyl-5-(1H-pyrazol-4-yl)pyridin-2-yl)-imidazolidin-2-one]",200 to 2000 nM
19,"CCc1nc(-n2ccn(C(C)c3cccc(OC)c3)c2=O)ccc1-c1cn[nH]c1 (single isomer, unassigned) [Example 184, 1-(6-ethyl-5-(1H-pyrazol-4-yl)pyridin-2-yl)-3-(1-(3-methoxy-phenyl)-ethyl)-1H-imidazol-2(3H)-one]",200 to 2000 nM

# The remaining lines, values ahead:
row,IC50,SMILES
1,< 2 nM,"COc1cccc(CN2C(=O)N(c3ccc(-c4cn[nH]c4)cc3)CC2CO)c1 (racemic) [Example 37, 1-(4-(1H-Pyrazol-4-yl)phenyl)-4-(hydroxymethyl)-3-(3-methoxybenzyl)imidazolidin-2-one]"
2,< 2 nM,"COc1cccc(CN2C(=O)N(c3ccc(-c4cn[nH]c4)cc3)CC2C(C)(C)O)c1 (single isomer, unassigned) [Example 123, 1-(4-(1H-Pyrazol-4-yl)phenyl)-4-(2-hydroxypropan-2-yl)-3-(3-methoxybenzyl)imidazolidin-2-one]"
3,< 2 nM,"COc1cccc(CN2C(=O)N(c3ccc(-c4cn[nH]c4)cc3)CC2C(C)(C)O)c1 (single isomer, unassigned) [Example 124, 1-(4-(1H-Pyrazol-4-yl)phenyl)-4-(2-hydroxypropan-2-yl)-3-(3-methoxybenzyl)imidazolidin-2-one]"
4,< 2 nM,"COc1cccc(CN2CC(CO)N(c3ccc(-c4cn[nH]c4)cc3)C2=O)c1 (single isomer, unassigned) [Example 127, 3-(4-(1H-Pyrazol-4-yl)phenyl)-4-(hydroxymethyl)-1-(3-methoxybenzyl)imidazolidin-2-one]"
5,2.1 to 20 nM,"COc1cc(CN2C(=O)N(c3ccc(-c4cn[nH]c4)cc3)C[C@@H]2CO)ccc1F (single isomer, unassigned) [Example 130]"
6,2.1 to 20 nM,"COc1cc(CN2C(=O)N(c3ccc(-c4cn[nH]c4)cc3)C[C@H]2CO)ccc1F (single isomer, unassigned) [Example 131]"
7,2.1 to 20 nM,"COc1cccc(C(C)N2C(=O)N(c3ccc(-c4cn[nH]c4)cc3)C[C@@H]2CO)c1 (single isomer, unassigned) [Example 132]"
8,2.1 to 20 nM,"COc1cccc(C(C)N2C(=O)N(c3ccc(-c4cn[nH]c4)cc3)CC2(C)C)c1 (single isomer, unassigned) [Example 145, 1-(4-(1H-pyrazol-4-yl)phenyl)-3-(1-(3-methoxy-phenyl)-ethyl)-4,4-dimethyl-imidazolidin-2-one]"
9,< 2 nM,"COc1cccc(C(CO)N2CCN(c3ccc(-c4cn[nH]c4)cc3)C2=O)c1 (single isomer, unassigned) [Example 155, 1-(4-(1H-Pyrazol-4-yl)phenyl)-3-(2-hydroxy-1-(3-methoxyphenyl)ethyl)imidazolidin-2-one]"
10,2.1 to 20 nM,"COCC(c1cccc(OC)c1)N1CCN(c2ccc(-c3cn[nH]c3)cc2)C1=O (single isomer, unassigned) [Example 156, 1-(4-(1H-Pyrazol-4-yl)phenyl)-3-(2-methoxy-1-(3-methoxyphenyl)ethyl)imidazolidin-2-one]"
11,< 2 nM,"CCc1nc(N2CCN(C(CO)c3cccc(OC)c3)C2=O)ccc1-c1cn[nH]c1 (single isomer, unassigned) [Example 159, 1-(6-ethyl-5-(1H-pyrazol-4-yl)pyridin-2-yl)-3-(2-hydroxy-1-(3-methoxy-phenyl)ethyl) imidazolidin-2-one]"
12,< 2 nM,"CCc1nc(N2CCN(C(C)c3cccc(OC)c3)C2=O)ccc1-c1cn[nH]c1 (single isomer, unassigned) [Example 173, 1-(6-ethyl-5-(1H-pyrazol-4-yl)pyridin-2-yl)-3-(1-(3-methoxy-phenyl)ethyl) imidazolidin-2-one]"
13,< 2 nM,"CCc1nc(-n2ccn(C(C)c3cccc(OC)c3)c2=O)ccc1-c1cn[nH]c1 (single isomer, unassigned) [Example 183, 1-(6-ethyl-5-(1H-pyrazol-4-yl)pyridin-2-yl)-3-(1-(3-methoxy-phenyl)-ethyl)-1H-imidazol-2(3H)-one]"
14,< 2 nM,"COc1cccc(C(C)n2ccn(-c3ccc(-c4cn[nH]c4)c(C)n3)c2=O)c1 (single isomer, unassigned) [Example 188, 1-(1-(3-methoxy-phenyl)ethyl)-3-(6-methyl-5-(1H-pyrazol-4-yl)pyridin-2-yl)-1H-imidazol-2(3H)-one]"
